Measurements taken from patent US3988466A, “Prevention of gastric lesions” (priority 1973, dated 1976).
Where “and” joins values, the source holds several entries; their conditions need not be identical. Identical values can stand only once. Entries after “also recorded” stand apart in the source; their conditions may differ. Like-named read-outs stand apart in the source and are kept apart here.

Columns and labels:
[1] = tested on: aspirin-induced gastric lesions in pylorus-ligated rats; experiment: Effect of various amino acids on aspirin-induced gastric lesions in pylorus-ligated rats (Experiment 3); type: in vivo, male Donryu strain rats
[2] = pH of amino acids in 1% carboxymethylcellulose solution; type: physicochemical; conditions: 150 mg/ml in 1% carboxymethylcellulose solution
Experimental: The pH values of the amino acids are also determined. The amino acids are separately dissolved or suspended in 1% carboxymethylcellulose solution at a concentration of 150 mg/ml and the pH is measured on an Hitachi pH meter (product of Hitachi Ltd., Japan).

[3] = tested on: gastric secretion in pylorus-ligated rats; experiment: Effect of L-glutamine on gastric secretion in pylorus-ligated rats (Experiment 4); type: in vivo, male Donryu strain rats
Experimental: In this Experiment, 7 groups of male Donryu strain rats are used. After 24 hours of fasting, the pylorus of the animal is ligated in the same manner as described in Experiment 1. Six groups are treated in the same manner as described in Experiment 1 except for the injection of the solution of pontamine sky blue 6BX in saline. A seventh group (normal) is treated twice with 5 ml/kg of 1% carboxymethylcellulose solution.
After 7 hours of pylorus ligation, the animals are killed and the stomach is removed. The gastric juice is collected and the volume is measured. The gastric juice is titrated to pH 7.4 with 0.1N NaOH using an electromatic pH meter. The concentration of pepsin in the gastric juice is also determined according to Anson's hemoglobin method [Anson, M. L., J. Gen. Physiol.

[4] = tested on: acetic acid-induced writhing response in mice; experiment: Effect of L-glutamine on analgesic activity of aspirin in mice (Experiment C); type: in vivo, male dd strain mice; conditions: aspirin 300 mg/kg oral; writhings in 10 minutes
Experimental: In this Experiment, 3 groups of male dd strain mice weighing 19-21 g are used.
As a control, the third group is treated only with 1% carboxymethylcellulose solution. After a control period of one hour, the animals are treated with 0.2 ml of 0.7% acetic acid solution in physiological saline by intraperitoneal injection, according to the method of Koster et al. [Koster, R. et al: Fed. Proc., 18, 412 (1959)]. Starting 10 minutes after the administration of acetic acid, the number of writhing reaction occurred in 10 minutes is counted.

[5] = tested on: yeast-induced fever in rats; experiment: Effect of L-glutamine on antipyretic activity of aspirin in rats (Experiment B); type: in vivo, male Wistar strain rats; conditions: aspirin 200 mg/kg oral
Experimental: In this Experiment, male Wistar strain rats weighing about 90-100 g are treated with 2.5 ml/rat of a suspension of yeast (Brewers Yeast, product of Nutritional Biochem. Co., U.S.A.) in physiological saline (concentration: 250 mg/ml), by subcutaneous injection in the back, according to the method of Gleen et al [Gleen, E. M. et al: J. Pharma. Exp. Therp., 155, 157 (1967)]. The animals are then fasted. The animals showing an increased rectal temperature of 38° C or more after 17 hours are selected for use in experiment. […] As a control, one group is treated with 105 ml of 1% carboxymethylcellulose solution alone. After the treatment, the rectal temperature is measured at the time indicated.

[6] = Rattus norvegicus, po; read-out: Inhibition
[7] = amino acid 750 mg/kg oral; aspirin by gastric intubation
[8] = Rattus norvegicus, po, read-out: Inhibition
[9] = Control group: aspirin 100 mg/kg without L-glutamine, 7 hours

| Compound | inhibition in vivo at 750 mg/kg [1, 6] [%] | effect on aspirin-induced gastric lesions (in words) ([1]; amino acid 750 mg/kg oral) | Ulcer index [1, 7] [mm] | Amino acid pH [2] | further results |
| --- | --- | --- | --- | --- | --- |
| N[C@@H](CSSC[C@H](N)C(=O)O)C(=O)O [L-cystine] | 7.8 | no appreciable effect | 41.6±3.9 | 6.62 | – |
| NC(Cc1c[nH]c2ccccc12)C(=O)O (racemic) [DL-tryptophan] | 39.2 | – | 27.4±4.3 | 8.27 | – |
| N[C@@H](Cc1ccc(O)cc1)C(=O)O [L-tyrosine] | – | no appreciable effect; also recorded: no significant effect | 39.3±3.0 | 7.52 and 7.25 | inhibition in vivo at 750 mg/kg [1, 8]: 12.9% |
| CC(=O)Oc1ccccc1C(=O)O [aspirin, reference compound] | – | – | – | – | Gastric juice volume [3, 9]: 12.5 ± 0.5 mL; Pepsin concentration [3, 9]: 31.8 ± 1.0 mg/mL; Titrable acidity [3, 9]: 65.1±5.7 mEq/L; concentration of pepsin (in words) ([3]; administration of aspirin): increased; effect on acid output (in words) ([3]; aspirin itself): considerably reduces the titrable acidity and acid output; effect on titrable acidity (in words) ([3]; aspirin itself): considerably reduces the titrable acidity; effect on volume of gastric juice (in words) ([3]; aspirin itself): does not affect the volume of gastric juice; Writhing response number [4]: 10±1; Rectal temperature ([5]; 0 hour): 38.4±0.1 °C; Rectal temperature ([5]; 1 hour): 37.9±0.1 °C; Rectal temperature ([5]; 2 hours): 36.7±0.2 °C; Rectal temperature ([5]; 4 hours): 36.6±0.1 °C; Rectal temperature ([5]; 6 hours): 36.9±0.2 °C |
| N[C@@H](CC(=O)O)C(=O)O [L-aspartic acid] | 17.3 | no appreciable effect; also recorded: no significant effect | 37.3±6.9 | 3.33 | – |
| N[C@@H](Cc1ccccc1)C(=O)O [L-phenylalanine] | 52.3 | significant inhibition of the lesions | 21.5±3.7 | 6.26 | – |
| N=C(N)NCCC[C@H](N)C(=O)O [L-arginine] | – | prevent the aspirin-induced gastric lesions almost completely; also recorded: best preventive effect | 0.9±0.5 | 11.00 | inhibition in vivo at 750 mg/kg [1, 8]: 98% |
| NCC(=O)O [glycine] | – | – | 6.4±1.7 | 6.12 | inhibition in vivo at 750 mg/kg [1, 8]: 85.8% |
| CC[C@H](C)[C@H](N)C(=O)O [L-isoleucine] | 72.6 | effective for the prevention of the gastric lesions with high significance | 11.9±2.3 | 6.60 | – |
| N[C@@H](CO)C(=O)O [L-serine] | 93.3 | – | 3.0±1.0 | 6.11 | – |
| CSCC[C@H](N)C(=O)O [L-methionine] | 71.2 | effective for the prevention of the gastric lesions with high significance | 13.0±3.3 | 6.09 | – |
| C[C@@H](O)[C@H](N)C(=O)O [L-threonine] | 89.6 | – | 4.7±1.1 | 6.26 | – |
| N[C@@H](CS)C(=O)O [L-cysteine] | 10.2 | no appreciable effect | 40.5±7.6 | 5.81 | – |
| CC(C)[C@H](N)C(=O)O [L-valine] | 91.8 | – | 3.7±1.3 | 6.80 | – |
| N[C@@H](CCC(=O)O)C(=O)O [L-glutamic acid] | 79.8 | good effect | 9.1±2.6 | 3.45 | – |
| C[C@H](N)C(=O)O [L-alanine] | 85.1 | – | 6.7±1.5 | 6.45 | – |
| CC(C)C[C@H](N)C(=O)O [L-leucine] | 80.5 | – | 8.8±2.8 | 7.15 | – |
| NC(=O)C[C@H](N)C(=O)O [L-asparagine] | 77.8 | – | 10.0±2.2 | 5.80 | – |
| N[C@@H](Cc1c[nH]cn1)C(=O)O [L-histidine] | 95.3 | – | 2.1±0.8 | 7.86 | – |
| O=C(O)[C@@H]1C[C@@H](O)CN1 [L-hydroxyproline] | – | effective for the prevention of the gastric lesions with high significance | 12.8±2.6 | 7.86 | inhibition in vivo at 750 mg/kg [1, 8]: 71.6% |
| NCCCC[C@H](N)C(=O)O [L-lysine] | – | prevent the aspirin-induced gastric lesions almost completely; also recorded: best preventive effect | 0.4±0.2 | 10.26 | inhibition in vivo at 750 mg/kg [1, 8]: 99.1% |
| NC(=O)CC[C@@H](N)C(=O)O [D-glutamine] | 82.9 | – | 7.7±1.8 | 5.51 | – |
| O=C(O)[C@@H]1CCCN1 [L-proline] | 77.6 | – | 10.1±2.3 | 6.32 | – |
